Measurements as given in patent publication US9808527B2, “Methods and compositions for treating HIV infections” (priority 2006, dated 2017).
Read-outs that look alike come from different tables or passages of the source.

Experiments:
[1] = test system: multi-drug-resistant clinical HIV-1 variants; experiment: p24 assay, PHA-PBMs, panel of multi-drug-resistant clinical HIV-1 isolates; type: cell-based; details: Human immunodeficiency virus 1, read-out: IC50 against multi-drug-resistant clinical HIV-1 strains, PHA-PBMs, p24 production
Method: (§1) Drug susceptibility assay. The susceptibility of HIV-1LAI, HIV-2EHO, HIV-2ROD, to various drugs and the cytotoxicity of those drugs was determined by using the MTT assay. Briefly, MT-2 cells (2×10^4/mL) were exposed to 100 TCID50s (50% tissue culture infectious doses) of HIV-1LAI, HIV-2EHO, or HIV-2ROD in the presence or absence of various concentrations of drugs in 96-well microculture plates and were incubated at 37° C. for 7 days. After 100 μL of the medium was removed from each well, 3-(4,5-dimethylthiazol-2-yl)-2,5-diphenyltetrazolium bromide (MTT) solution (10 μL, 7.5 mg/mL in phosphate-buffered saline) was added to each well in the plate, followed by incubation at 37° C. for 4 hours. […] All assays were performed in duplicate or triplicate. To determine the sensitivity of HIV-1Ba-L, HIV-1ERS104 pre, and clinical multi-drug-resistant HIV-1 isolates and different subtypes of HIV-1 isolates to drugs, phytohemagglutinin-activated peripheral blood mononuclear cells (PHA-PBMs; 10^6/mL) were exposed to 50 TCID50 (50% tissue infectious dose) of each HIV-1 isolate and cultured in the presence or absence of various concentrations of drugs in 10-fold serial dilutions in 96-well microtiter culture plates. To determine the drug susceptibility of certain laboratory HIV-1 strains (HIV-1NL4-3), MT-4 cells were used as target cells. MT-4 cells (10^5/mL) were exposed to 100 TCID50 of wild type HIV-1NL4-3 and PI-resistant HIV-1NL4-3 in the presence or absence of various concentrations of drugs and were incubated at 37° C. On day 7 of culture, the supernatant was harvested and the amount of p24 Gag protein was determined by using a fully automated chemiluminescent enzyme immunoassay system (Lumipulse F; Fujirebio Inc., Tokyo, Japan) (22). […] All assays were performed in duplicate or triplicate.
The amino acid substitutions identified in the protease-encoding region of HIV-1ERS104pre, HIV-1TM, HIV-1MM, HIV-1JSL, HIV-1B, HIV-1C, HIV-1G compared to the consensus type B sequence cited from the Los Alamos database include L63P; L10I, K14R, R41K, M46L, I54V, L63P, A71V, V82A, L90M; I93L; L10I, K43T, M46L, I54V, L63P, A71V, V82A, L90M, Q92K; L10I, L24I, I33F, E35D, M36I, N37S, M46L, I54V, R57K, I62V, L63P, A71V, G73S, V82A; L10I, K14R, L33I, M36I, M46I, F53I, K55R, I62V, L63P, A71V, G73S, V82A, L90M, I93L; L10I, I15V, K20R, L24I, M36I, M46L, I54V, I62V, L63P, K70Q, V82A, L89M; and L10I, V11I, T12E, I15V, L19I, R41K, M46L, L63P, A71T, V82A, L90M, respectively. HIV-1ERS104pre served as a source of wild-type HIV-1. The IC50 values were determined by using PHA-PBMs as target cells and the inhibition of p24 Gag protein production by each drug was used as an endpoint. The numbers in parentheses represent the fold changes of IC50 values for each isolate compared to the IC50 values for wild-type HIV-1ERS104pre. All assays were conducted in duplicate or triplicate, and the data shown represent mean values (±1 standard deviations) derived from the results of three independent experiments.

HIV-1LAI = experiment: MTT assay, MT-2 cells exposed to HIV-1LAI (acute HIV-1 infection assay); type: cell-based; details: for Selectivity Index: HIV-1LAI; for IC50: Human immunodeficiency virus 1, MT2, 168 h
Method: as §1

HIV-1IDV5μM = experiment: microbe, parasite or virus in culture; type: cell-based; details: for IC50: Human immunodeficiency virus 1, MT4, read-out: IC50 against HIV-1IDV5μM; for fold change of IC50, HIV-1IDV5μM: compared to wild-type HIV-1NL4-3
Method: as §1
(§2) Generation of PI-resistant HIV-1 in vitro. MT-4 cells (10^5/mL) were exposed to HIV-1NL4-3 (500 TCID50) and cultured in the presence of various PIs at an initial concentration of its IC50 values. Viral replication was monitored by determination of the amount of p24 Gag produced by MT-4 cells. The culture supernatants were harvested on day 7 and used to infect fresh MT-4 cells for the next round of culture in the presence of increasing concentrations of each drug. […] Proviral DNA samples obtained from the lysates of infected cells were subjected to nucleotide sequencing. This drug selection procedure was carried out until the drug concentration reached 1 or 5 μM.

HIV-1RTV5μM = experiment: microbe, parasite or virus in culture; type: cell-based; details: for IC50: Human immunodeficiency virus 1, MT4, read-out: IC50 against HIV-1RTV5μM; for fold change of IC50, HIV-1RTV5μM: compared to wild-type HIV-1NL4-3
Method: as §1, §2

HIV-1ATV1μM = experiment: microbe, parasite or virus in culture; type: cell-based; details: for IC50: Human immunodeficiency virus 1, MT4, read-out: IC50 against HIV-1ATV1μM; for fold change of IC50, HIV-1ATV1μM: compared to wild-type HIV-1NL4-3
Method: as §1, §2

HIV-1LPV1μM = experiment: microbe, parasite or virus in culture; type: cell-based; details: for IC50: Human immunodeficiency virus 1, MT4, read-out: IC50 against HIV-1LPV1μM; for fold change of IC50, HIV-1LPV1μM: compared to wild-type HIV-1NL4-3
Method: as §1, §2

HIV-1NFV5μM = experiment: microbe, parasite or virus in culture; type: cell-based; details: for IC50: Human immunodeficiency virus 1, MT4, read-out: IC50 against HIV-1NFV5μM; for fold change of IC50, HIV-1NFV5μM: compared to wild-type HIV-1NL4-3
Method: as §1, §2

HIV-1SQV5μM = experiment: microbe, parasite or virus in culture; type: cell-based; details: for IC50: Human immunodeficiency virus 1, MT4, read-out: IC50 against HIV-1SQV5μM; for fold change of IC50, HIV-1SQV5μM: compared to wild-type HIV-1NL4-3
Method: as §1, §2

HIV-1APV5μM = experiment: microbe, parasite or virus in culture; type: cell-based; details: for IC50: Human immunodeficiency virus 1, MT4, read-out: IC50 against HIV-1APV5μM; for fold change of IC50, HIV-1APV5μM: compared to wild-type HIV-1NL4-3
Method: as §1, §2

HIV-2ROD = experiment: MTT assay, MT-2 cells exposed to HIV-2ROD; type: cell-based
Method: as §1
All assays were conducted in duplicate, and the data shown represent mean values (±1 standard deviations) derived from the results of three independent experiments.

97ZA003 (C-R5) = experiment: p24 Gag production inhibition, PHA-PBMs, subtype C isolate 97ZA003; type: cell-based, HIV-1
Method: as §1
The IC50 values were determined by using PHA-PBMs as target cells and the inhibition of p24 Gag protein production by each drug was used as an endpoint. All assays were conducted in duplicate, and the data shown represent mean values (±1 standard deviations) derived from the results of two or three independent experiments.

[2] = read-out: IC50 against HIV-1LAI, MT-2 cells, 100 TCID50 of HIV-1LAI, MTT assay on day 7
[3] = Human immunodeficiency virus 2, MT2, read-out: IC50 against HIV-2ROD
[4] = Human immunodeficiency virus 1, PHA-PBMs, p24 Gag production, read-out: IC50 against 97ZA003 (C-R5)
[5] = MT-2 cells, 100 TCID50 of HIV-1LAI, MTT assay on day 7, read-out: IC50 against HIV-1LAI
[6] = Human immunodeficiency virus 2, MT2, MT-2 cells, 100 TCID50, MTT assay, read-out: IC50 against HIV-2ROD

SMILES | IC50 [1] [nM] | Selectivity Index (HIV-1LAI; MT-2 cells) | IC50 (HIV-1LAI; [2]) [nM] | IC50 (HIV-1IDV5μM) [nM] | fold change of IC50, HIV-1IDV5μM (HIV-1IDV5μM) | IC50 (HIV-1RTV5μM) [nM] | fold change of IC50, HIV-1RTV5μM (HIV-1RTV5μM) | IC50 (HIV-1ATV1μM) [nM] | fold change of IC50, HIV-1ATV1μM (HIV-1ATV1μM) | IC50 (HIV-1LPV1μM) [nM] | fold change of IC50, HIV-1LPV1μM (HIV-1LPV1μM) | IC50 (HIV-1NFV5μM) [nM] | fold change of IC50, HIV-1NFV5μM (HIV-1NFV5μM) | IC50 (HIV-1SQV5μM) [nM] | fold change of IC50, HIV-1SQV5μM (HIV-1SQV5μM) | IC50 (HIV-1APV5μM) [nM] | fold change of IC50, HIV-1APV5μM (HIV-1APV5μM) | IC50 (97ZA003 (C-R5); [4]) [nM] | IC50 (HIV-1LAI; [5]) [nM] | IC50 (HIV-2ROD; [6]) [nM] | other results
CC(C)CN(CC(O)C(Cc1ccccc1)NC(=O)OC1COC2OCCC12)S(=O)(=O)c1ccc2c(c1)OCO2 (centres unmarked) [GRL-98065] | ≤ 6 | 71,400 | ~0.5 | 3.7 ± 0.7 | 12 | 2.5 ± 0.3 | 8 | 1.5 ± 0.9 | 5 | 7.5 ± 0.3 | 25 | 2.4 ± 0.8 | 8 | 6 ± 3 | 20 | 32 | 107 | 0.5 ± 0.1 | – | – | IC50 (HIV-1LAI; read-out: MTT assay (IC50, nM), Human CD4+ MT-2 cells, 100 TCID50 of HIV-1LAI, day 7): 0.4 nM; IC50 (HIV-2ROD; [3]): 4.5 ± 0.4 nM
CC(C)(C)NC(=O)[C@@H]1CN(Cc2cccnc2)CCN1C[C@@H](O)C[C@@H](Cc1ccccc1)C(=O)N[C@H]1c2ccccc2C[C@H]1O [IDV, indinavir] | > 1000 | – | – | > 1000 | – | 250 ± 10 | – | 388 ± 1 | – | > 1000 | – | 270 ± 50 | – | > 1000 | – | 200 ± 7 | – | 37 ± 6 | 48 ± 7 | 54 ± 3 | –
CC(C)(C)NC(=O)[C@@H]1C[C@@H]2CCCC[C@@H]2CN1C[C@@H](O)[C@H](Cc1ccccc1)NC(=O)[C@H](CC(N)=O)NC(=O)c1ccc2ccccc2n1 [SQV, Saquinavir] | 140 to 290 | 2050 | 8 ± 1 | 59 ± 4 | 8 | 10 ± 8 | 1 | 37 ± 4 | 5 | 32 ± 2 | 5 | 24 ± 8 | 3 | > 1000 | > 143 | 31 ± 4 | 4 | – | – | – | IC50 (HIV-2ROD; [3]): 4.3 ± 0.2 nM; IC50 (97ZA003 (C-R5); Human immunodeficiency virus 1, read-out: IC50 against 97ZA003 (C-R5)): 6.7 ± 0.8 nM
COC(=O)N[C@H](C(=O)N[C@@H](Cc1ccccc1)[C@@H](O)CN(Cc1ccc(-c2ccccn2)cc1)NC(=O)[C@@H](NC(=O)OC)C(C)(C)C)C(C)(C)C [ATV, Atazanavir] | – | 5750 | 4.8 ± 0.1 | 60 ± 20 | 14 | 18 ± 8 | 4 | 330 | 79 | 40 ± 2 | 10 | 21 ± 6 | 5 | 326 ± 1 | 78 | 3 ± 1 | 1 | 3.4 ± 0.1 | – | – | IC50 (HIV-2ROD; [3]): 13 ± 6 nM
Cc1cccc(C)c1OCC(=O)N[C@@H](Cc1ccccc1)[C@@H](O)C[C@H](Cc1ccccc1)NC(=O)[C@H](C(C)C)N1CCCNC1=O [LPV, lopinavir] | – | – | – | – | – | – | – | – | – | – | – | – | – | – | – | – | – | 7.3 ± 0.6 | 7 ± 1 | 4.9 ± 0.8 | –
CC(C)c1nc(CN(C)C(=O)N[C@H](C(=O)N[C@@H](Cc2ccccc2)C[C@H](O)[C@H](Cc2ccccc2)NC(=O)OCc2cncs2)C(C)C)cs1 [RTV, ritonavir] | > 1000 | – | – | – | – | – | – | – | – | – | – | – | – | – | – | – | – | 39 ± 4 | 54 ± 1 | 260 ± 10 | –
Cc1c(O)cccc1C(=O)N[C@@H](CSc1ccccc1)[C@H](O)CN1C[C@H]2CCCC[C@H]2C[C@H]1C(=O)NC(C)(C)C [NFV, Nelfinavir] | > 1000 | – | – | – | – | – | – | – | – | – | – | – | – | – | – | – | – | 37 ± 7 | 32 ± 4 | 240 ± 9 | –
CC(C)CN(C[C@@H](O)[C@H](Cc1ccccc1)NC(=O)O[C@H]1CCOC1)S(=O)(=O)c1ccc(N)cc1 [APV, Amprenavir] | – | – | – | 170 ± 10 | – | 280 ± 20 | – | 200 ± 70 | – | 310 ± 20 | – | 60 ± 4 | – | 330 ± 30 | – | > 1000 | – | 33 ± 5 | 36 ± 2 | 570 ± 10 | –
